Here are results for one compound from patent US20200223840A1, “SUBSTITUTED PYRROLIDINE AMIDES III” (Gruenenthal GMBH, priority 2019, published 2020).

The assay deals with T1, human glucocorticoid receptor (Homo sapiens, UniProt P04150).
T1 construct: host or cells: IM9 human lymphoblast cells, cytosol fraction
T1 sequence (P04150 1-777): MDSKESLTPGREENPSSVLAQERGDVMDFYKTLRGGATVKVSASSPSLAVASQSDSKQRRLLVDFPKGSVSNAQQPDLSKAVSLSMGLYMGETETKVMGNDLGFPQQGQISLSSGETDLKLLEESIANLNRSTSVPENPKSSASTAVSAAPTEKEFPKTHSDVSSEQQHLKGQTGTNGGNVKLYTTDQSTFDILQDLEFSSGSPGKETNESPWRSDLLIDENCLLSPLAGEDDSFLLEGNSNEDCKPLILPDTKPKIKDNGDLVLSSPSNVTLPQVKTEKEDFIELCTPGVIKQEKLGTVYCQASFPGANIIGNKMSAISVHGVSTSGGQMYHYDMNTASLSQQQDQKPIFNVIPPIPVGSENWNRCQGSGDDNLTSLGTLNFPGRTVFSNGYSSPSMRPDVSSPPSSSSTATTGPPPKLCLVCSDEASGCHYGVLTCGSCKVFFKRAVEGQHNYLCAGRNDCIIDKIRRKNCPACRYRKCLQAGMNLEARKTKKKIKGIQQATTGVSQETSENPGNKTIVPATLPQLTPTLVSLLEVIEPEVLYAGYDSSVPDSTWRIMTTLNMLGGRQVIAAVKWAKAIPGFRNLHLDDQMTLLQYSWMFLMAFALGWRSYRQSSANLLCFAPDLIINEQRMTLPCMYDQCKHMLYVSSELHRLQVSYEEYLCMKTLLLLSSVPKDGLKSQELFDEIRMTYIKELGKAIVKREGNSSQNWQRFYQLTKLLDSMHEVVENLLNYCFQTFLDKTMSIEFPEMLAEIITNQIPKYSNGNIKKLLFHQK
In words: Human glucocorticoid receptor (hGR) ligand-binding assay, 3H-dexamethasone, IM9 cytosol. The conditions noted are these: read-out: % inhibition hGR at 1 μM. The procedure: Preferably, the glucocortitcoid receptor extracted from cytosol of IM9 cells is used for competitive radioligand binding assays to calculate percentage inhibition of the binding of radiolabeled ligand 3H-dexamethasone at the human glucocorticoid receptor.
The human lymphoblast cell line IM9 (ATCC, Bethesda, Md.) was cultivated in RPMI 1640 media containing 10% fetal bovine serum, penicillin (100 U/ml), streptomycin (100 μg/ml), and 2 mM L-glutamine at […] and 7% CO2 in a humidified incubator. Cells were centrifuged for 10 minutes at 1500 g and were washed in PBS and repelleted. Cell were then resuspended in homogenization buffer consisting of: 10 mM TES, 10 mM sodium molybdate, 1 mM EDTA, pH 7.4, 20 mM 2-mercaptoethanol, and 10% glycerol. Disruption of the cells was performed by nitrogen cavitation using 2×15 minutes at 600 to 750 psi nitrogen in a N2 cavitator at 0° C. The cell preparation was then centrifuged at 27,000 g for 15 minutes, and the resultant supernatant (=cytosol of IM9 cells) was centrifuged at 103,000 g for 60 minutes at 4° C. The amount of protein in the supernatant fraction was determined using a BCA assay kit and aliquots were snap frozen in a dry ice-acetone bath and stored at −70° C. […] 100 μl of the supernatant) was finally assayed for radioactivity by liquid scintillationspectrometry, and percentage inhibition of 3H-dexamethasone binding was calculated.

On to `Cc1cnc(C(=O)N[C@H]2[C@H](c3ccccc3)N(c3ccc4c(cnn4-c4ccc(=O)n(C)c4)c3)C(=O)C2(C)C)s1` [Example 26, N-[(2S,3R)-4,4-Dimethyl-1-[1-(1-methyl-6-oxo-1H-pyridin-3-yl)-1H-indazol-5-yl]-5-oxo-2-phenyl-pyrrolidin-3-yl]-5-methyl-thiazole-2-carboxylic acid amide], for which the inhibition at 1 µM is 28%.
